Measured values published in US7189751B2, “Oxa(thia)zolidine compounds, process for preparation thereof and anti-inflammatory agents” (Nippon Soda Co., Ltd., priority 2001, dated 2007).

Experiments:
[1] = system: Mouse Delayed Contact Dermatitis Induced by Picryl Chloride; assay: Mouse delayed contact dermatitis induced by picryl chloride; format: in vivo
[2] = system: Mouse Delayed Contact Dermatitis Induced by Picryl Chloride; assay: as above; format: in vivo; remark: listed apart in the source
Procedure: Pharmacological Test Example 3 Mouse Delayed Contact Dermatitis Induced by Picryl Chloride
This pharmacological test was carried out referring to the method of Asherson, G. L. & Ptak, W. (Immunology, 15: 405–416 (1968).) and the method of Jun Hiroi (Folia Pharmacology of Japan, 86: 233–239 (1985).). More specifically, hairs on the abdomen of an ICR-strain male mouse were removed using an electric clipper and an electric shaver. Then, 0.1 mL of 7% ether solution of picryl chloride (Tokyo Kasei Kogyo Co., Ltd., C 0307) was applied onto the abdomen for sensitization. On the sixth day after the sensitization, 20 μL/ear of 1% olive oil solution of picryl chloride was topically applied to the anterior and posterior surfaces of both ears of the mouse to induce contact dermatitis (first induction). Before and 24 hours after the induction, the thicknesses of the particular parts on the both ears were measured three times, respectively, using a digimatic micrometer (Mitsutoyo Co., Ltd.) to work out the average values. Ear edema of the both ears was respectively determined by subtracting the average thickness of the each ear before the induction from that on 24 hours after the induction, so that a grouping was carried out to separate the appropriate individuals. On the fourth day after the first induction, the hairs on the abdomen were removed again, and 0.1 mL of 7% ethanol solution of picryl chloride was applied thereto for additional sensitization. The contact dermatitis for evaluating activity was induced by re-applying 20 μL/ear of 1% olive oil solution of picryl chloride to the anterior and posterior surfaces of both ears (second induction) on the seventh day after the additional sensitization (on the […] after the first sensitization). The activity of each compound of the present invention was evaluated as the inhibition on the contact dermatitis as compared with that of the vehicle applied control. That is, the thicknesses of the particular portions of the both ears were measured respectively three times with a digimatic micrometer to work out the mean values before, 24 hours and 48 hours after the second induction. Ear swelling was determined by subtracting the ear thickness before the second induction from that on 24 hours and 48 hours after the second induction, respectively. Topical application activity was evaluated by applying 25 μL of the acetone solution of the compound of the present invention similarly to the anterior and posterior surfaces of the right ear one hour before and 16 hours after the second induction. As the positive control, 0.02 mg/20 μL of acetone solution of Dexamethasone (hereinafter referred to as DEX, Wako Pure Chemical Industries Ltd., 047-18863) was applied similarly as for the compound of the present invention. With respect to the inhibitory activity in topical application tests, the topical activity was determined by the inhibition of the applied right ear edema, and the translocation and distribution property was determined by the activity onto the swelling of non-treated left ear. Oral administration activity was evaluated by administrating 0.5% methyl cellulose suspension of the compound of the present invention forcibly and perorally to the mouse an hour before and 16 hours after the second induction. As the positive control, 20 mg/kg of Prednisolone (Sigma Chemical Co., P 6004) suspension was administrated similarly as for the compounds of the present invention. […] As the examples, the body weight changes in the mice for 48 hours after the second induction when they were administrated with the compounds shown in Table 5 are shown in Table 6.

SMILES: C[C@@H]1C[C@H]2[C@@H]3CCC4=CC(=O)C=C[C@]4(C)[C@@]3(F)[C@@H](O)C[C@]2(C)[C@@]1(O)C(=O)CO [DEX, Dexamethasone]
- Ear swelling after 24 hours, Right (Applied) (Mean ± S.E., mm) ([1]; topical 0.02 mg/25 μL/ear × 2, vehicle control 0.299 ± 0.006): 0.057 ± 0.009 mm
- Ear swelling after 24 hours, Left (Not applied) (Mean ± S.E., mm) ([1]; topical 0.02 mg/25 μL/ear × 2 on right ear, vehicle control 0.284 ± 0.008): −0.005 ± 0.033 mm
- Change in body weight 48 hours after induction (Mean ± S.E.) ([2]; 0.02 mg/ear × 2, vehicle control −0.45 ± 0.20): -1.42 ± 0.20 g
- Change in body weight 48 hours after induction (Mean ± S.E.) (%) ([2]; 0.02 mg/ear × 2, vehicle control −1.29 ± 0.59): −4.30 ± 0.59%
- intoxicated symptoms ([2]; mice of the picryl chloride dermatitis test): showed intoxicated symptoms
- body weight 48 hours after the second induction ([2]; mice of the picryl chloride dermatitis test, 48 hours after the second induction): reduced significantly
